Test results reported in patent US20050090457A1, “Method of treating mammals with genistein and/or genistein analogues” (N.V. NUTRICIA, priority 2002, published 2005).
Like-named read-outs stand apart in the source and are kept apart here.

Tests used:
PPARγ [1] = biological target: T1, PPARγ (Mus musculus, UniProt P37238); details: cited from earlier work; for PPARγ binding and activation: may act as allosteric effectors
T1 construct: host or cells: mouse macrophages
T1 sequence (P37238 1-505): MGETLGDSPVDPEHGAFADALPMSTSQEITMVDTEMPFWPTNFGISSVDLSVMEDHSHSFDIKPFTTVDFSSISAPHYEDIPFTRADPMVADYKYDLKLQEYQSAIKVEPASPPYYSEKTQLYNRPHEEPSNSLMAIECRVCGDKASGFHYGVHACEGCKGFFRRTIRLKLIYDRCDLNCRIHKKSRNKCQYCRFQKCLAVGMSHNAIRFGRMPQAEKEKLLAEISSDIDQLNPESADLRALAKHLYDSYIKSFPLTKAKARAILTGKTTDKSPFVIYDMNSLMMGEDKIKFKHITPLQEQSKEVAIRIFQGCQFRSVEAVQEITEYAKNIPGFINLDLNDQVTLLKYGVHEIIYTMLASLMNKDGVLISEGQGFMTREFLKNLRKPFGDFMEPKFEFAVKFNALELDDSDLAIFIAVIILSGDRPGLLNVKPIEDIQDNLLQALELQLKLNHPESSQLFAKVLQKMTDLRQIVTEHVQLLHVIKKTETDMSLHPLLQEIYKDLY

3T3-L1 = details: cited from earlier work; for proliferation of preadipocytes: time- and dose-dependent
PPARγ [2] = biological target: T2, PPARγ (Homo sapiens, UniProt P37231); test: Membrane-bound PPARγ binding assay
T2 sequence (P37231 1-505): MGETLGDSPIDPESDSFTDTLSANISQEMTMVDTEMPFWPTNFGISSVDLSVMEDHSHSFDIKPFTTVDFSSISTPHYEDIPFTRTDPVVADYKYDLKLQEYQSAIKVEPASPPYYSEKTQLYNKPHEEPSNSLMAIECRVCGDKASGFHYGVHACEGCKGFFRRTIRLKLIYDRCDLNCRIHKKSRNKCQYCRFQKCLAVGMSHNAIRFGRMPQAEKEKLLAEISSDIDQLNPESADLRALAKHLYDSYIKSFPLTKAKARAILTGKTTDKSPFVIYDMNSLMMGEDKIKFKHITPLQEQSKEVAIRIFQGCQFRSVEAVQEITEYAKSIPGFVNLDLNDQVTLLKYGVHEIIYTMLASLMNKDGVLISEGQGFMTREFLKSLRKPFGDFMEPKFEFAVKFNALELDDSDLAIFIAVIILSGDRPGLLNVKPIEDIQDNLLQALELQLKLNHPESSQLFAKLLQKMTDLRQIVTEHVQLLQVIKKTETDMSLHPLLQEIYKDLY
Description: The dose-related increase of PPRE reporter activity by genistein was also observed when a luciferase reporter construct containing three copies of a consensus PPRE inserted in front of a minimal thymidine kinase promoter. To determine whether genistein activates PPARγ through direct interaction with this receptor, we performed membrane-bound PPARγ binding assay.

[3] = test system: human bone marrow cultures; test: Adipogenesis (adipocyte numbers) in human bone marrow cultures; assay type: cell-based
[4] = test system: human bone marrow cell cultures; test: Osteogenesis in human bone marrow cell cultures; assay type: cell-based
Experimental: (§1) Similar stimulatory and inhibitory effects of genistein on bone formation were also observed in mouse and human bone marrow cell cultures. Like in KS483 cells, the stimulatory effects on ALP activity and Ca deposition in mouse bone marrow cultures occurred at concentrations between 0.1 μM and 10 μM, whereas the inhibitory effects were also found at the concentrations of 25 μM or higher. In human bone marrow cell cultures, the stimulatory effects was found at 0.001 μM, whereas the inhibitory effects were observed above 4 μM.

mouse bone marrow cells = test: Adipogenesis (adipocyte numbers) in mouse bone marrow cultures; assay type: cell-based
Description: (§2) These inhibitory and stimulatory effects of genistein on adipogenesis in KS483 cells were further confirmed by mRNA expression of the adipocyte markers, PPARγ2, adipocyte protein 2 (aP2) and lipoprotein lipase (LPL). Adipogenic responses of mouse bone marrow cells to different doses of genistein were obtained.

[5] = test system: osteogenesis and adipogenesis; test: In vitro model, summary: osteogenesis stimulated and adipogenesis inhibited; assay type: cell-based; details: low plasma concentrations, ER mediated
Description: (§3) Despite the large number of prior art publications that deal with the favourable effect of genistein on e.g. osteogenesis and/or adipogenesis, it has not been recognized before that it is crucial to avoid that plasma genistein levels reach a level that is sufficient to activate the PPARγ receptor in order to prevent inhibition of osteoblast activity and differentiation and to prevent stimulation of adipogenesis. As a matter of fact some of these publications recommend genistein dosages and plasma levels that according to the inventors' findings will produce significant adverse results. The inventors have developed a highly reproducible and sensitive in vitro model that has allowed them to discover that the effect of genistein components on e.g. osteogenesis and adipogenesis is biphasic, i.e. at plasma genistein levels above about 0.02 μM estrogen receptors (ER's) may be activated, leading to stimulation of osteogenesis, whilst at plasma genistein levels above about 4 μM the PPARγ receptor is activated, which triggers adipogenesis. By maintaining the plasma genistein levels at a level where the estrogen receptors are continuously activated, whilst at the same time avoiding activation of the PPARγ receptor, disorders such as osteoporosis and obesity may effectively be treated. […] These effects are mediated through the ER's.

p42 and p44 MAPK = test: Western blot of p42 and p44 MAPK activity; assay type: cell-based
Description: It has been shown that phosphorylation of PPARγ by p42 and p44 mitogen activated protein kinase (MAPK) regulates PPARγ activity. We therefore performed western blot to test whether genistein at the micromolar concentrations inhibit p42 and p44 MAPK activity. […] An inhibition of p42 and p44 vMAPK activity is likely to potentiate PPARγ activity.

3T3-L1 cels = details: cited from earlier work
[6] = cited from earlier work
[7] = test system: mouse bone marrow cell cultures; test: Osteogenesis in mouse bone marrow cell cultures; assay type: cell-based
Experimental: as §1

[8] = test system: estrogenic receptor responsive element (ERE); test: ERE luciferase reporter in transiently transfected KS483 cells; assay type: cell-based
Experimental: KS483 cell were transiently transfected with a luciferase reporter construct containing two copies of a consensus estrogenic receptor responsive element (ERE) inserted in front of TATA or five copies of a consensus PPARy responsive element (PPRE) inserted in front of TATA or empty TATA-luciferase reporter along with expression plasmids encoding human PPARγ2. […] Similarly, a dose-related increase of PPRE reporter activity was found in the range of 1 μM to 50 μM.
It is also possible that an activation of PPARγ down regulated transcriptional activity of estrogen, i.e. there is cross-talk between ER's and PPARγ. […] Ligand concentration thus plays a crucial role in determining the degree of activation of ER's and PPARγ.

human PPARγ2 = biological target: T3, human PPARγ2 (Homo sapiens, UniProt P37231); test: PPRE luciferase reporter in KS483 cells with human PPARγ2 expression plasmid; assay type: cell-based
T3 construct: expressed in transfected cells; host or cells: KS483 cells
T3 sequence (P37231 1-505): T2 sequence (P37231 1-505)
Description: KS483 cell were transiently transfected with a luciferase reporter construct containing two copies of a consensus estrogenic receptor responsive element (ERE) inserted in front of TATA or five copies of a consensus PPARy responsive element (PPRE) inserted in front of TATA or empty TATA-luciferase reporter along with expression plasmids encoding human PPARγ2.
To determine whether genistein activates PPARγ through direct interaction with this receptor, we performed membrane-bound PPARγ binding assay.

KS 483 cells = test: Osteogenesis in KS 483 cells (ALP activity, nodule formation, Ca deposition, osteoblastic marker mRNA); assay type: cell-based
Experimental: KS 483 cells were continuously treated for 21 days with various concentrations of genistein from day one onwards. Genistein had clear biphasic effects on osteogenesis. The stimulatory effects of genistein on alkaline phosphatase (ALP) activity, nodule formation and Ca deposition were found in the range of 0.1 μM to 10 μM, with a maximal effect at 1 μM. In contrast, the inhibitory effects of genistein on ALP activity, nodule formation and Ca deposition occurred at concentrations of 25 μM or higher.

[9] = test system: estrogen receptors (ER's); test: In vitro model, summary: activation of estrogen receptors; assay type: cell-based; details: leads to stimulation of osteogenesis
[10] = dose 8 mg/kg body weight; cited from earlier work
PPARγ [11] = biological target: T2, PPARγ; test: In vitro model, summary: activation of and binding to PPARγ; assay type: cell-based; details: triggers adipogenesis
Description: as §3
At the same time the adipogenesis increases. […]

[12] = test system: ovariectomised, lactating rats; details: cited from earlier work
KS483 cells = test: Adipogenesis (adipocyte numbers) in KS483 cells; assay type: cell-based; details: KS483 cells treated from day 1 onwards
Description: as §2

[13] = 61.7 μmole genistein per kg bodyweight per day

In the case of O=c1c(O)c(-c2ccc(O)cc2)oc2cc(O)cc(O)c12 [kaempferol], the “PPARγ binding and activation” value (PPARγ [1]) is listed as “able to bind and activate PPARγ”.

For O=C1C[C@@H](c2ccc(O)cc2)Oc2cc(O)cc(O)c21 [naringenin, reference compound], the proliferation of preadipocytes (3T3-L1) is given as “inhibit proliferation of preadipocytes”.

Compound CCCc1c(OCCCCc2nnn[nH]2)ccc(C(C)=O)c1O [LY 171883, reference compound] has a Ki (PPARγ [2]) of 4.2 µM.

In the case of O=c1cc(-c2ccc(O)cc2)oc2cc(O)cc(O)c12 [apigenin], the “PPARγ binding and activation” value (PPARγ [1]) is given as “able to bind and activate PPARγ”.

For O=c1c(-c2ccc(O)cc2)coc2cc(O)cc(O)c12 [genistein], the “concentration with an increase in adipocyte numbers” value [3] was 10 µM, the “concentration at which stimulatory effects on bone formation were found” value [4] was 0.001 µM and the “concentrations at which inhibitory effects on bone formation were observed” value [4] was “above 4 μM”. The “concentrations with an increase in adipocyte numbers” value (mouse bone marrow cells) was “above 4 μM”, the “plasma concentrations at which osteogenesis is stimulated and adipogenesis is inhibited” value [5] was 0.02 to 3 µM and the “concentration range of inhibition of p42 and p44 MAPK activity” value (p42 and p44 MAPK) was “micromolar range”. For the same compound, the D/M induced adipogenesis (3T3-L1 cels; 3.3 μM, lowest concentration tested) was “weak inhibitory influence”, the D/M induced adipogenesis (3T3-L1 cels; 100 μM) was “effectively abolishes adipogenic conversion” and the D/M induced adipogenesis (3T3-L1 cels; 10 and 33 μM) was “marked inhibition of adipogenesis”. For the same compound, the Ki (PPARγ [2]) was 5.7 µM, the “plasma concentration of genistein” value ([6]; Japanese who consume high amounts of soy products) was about 5 µM and the “plasma concentration of genistein” value ([6]; humans consuming diets without soy) was “less than 20 nM”. For the same compound, the PPARγ activity (PPARγ [1]; concentration of 10 μM) was “not stimulate PPARγ activity”, the “concentrations of inhibitory effects on bone formation” value [7] was at least 25 µM and the “concentration at which ERE reporter activity reaches the maximal level” value ([8]; KS483 cells) was 50 µM. The “effect of co-transfection of PPARγ2 on ERE reporter activity” value ([8]; KS483 cells exposed to the same concentrations of genistein) was “decreased ERE reporter activity”, the “concentration at which PPRE reporter activity reaches the maximal level” value (human PPARγ2; KS483 cells) was 50 µM and the “effect of co-transfection of ERα on PPRE reporter activity” value (human PPARγ2; KS483 cells exposed to genistein) was “down regulation of PPRE reporter activity”. The “concentration of maximal stimulatory effect on ALP activity, nodule formation and Ca deposition” value (KS 483 cells; KS 483 cells, 21 days) was 1 µM, the “concentrations of inhibitory effects on ALP activity, nodule formation and Ca deposition” value (KS 483 cells; KS 483 cells, 21 days) was at least 25 µM and the “bone formation by mRNA expression of Cbfal, osteocalcin and PTH/PTHrP receptor” value (KS 483 cells; genistein 1 μM) was “increase of bone formation”. The “bone formation by mRNA expression of Cbfal, osteocalcin and PTH/PTHrP receptor” value (KS 483 cells; genistein 25 μM) was “decrease of bone formation”, the “plasma genistein level above which estrogen receptors may be activated” value [9] was “above 0.02 μM” and the PPAR-γ expression (3T3-L1; added to 2-day postconfluent preadipocytes at the induction of differentiation) was “inhibit PPAR-γ expression”. The proliferation of preadipocytes (3T3-L1) was “inhibit proliferation of preadipocytes”, the serum genistein [10] was about 10 µM and the “genistein level above which the PPARγ receptor is bound/activated” value (PPARγ [11]) was “above 4 μM”. For the same compound, the “effect on uterine weight” value [12, 13] was “negative impact on uterine weight”, the “response on retention of bone mass” value [12, 13] was “lower response” and the “dosages with positive effect on the retention of bone mass” value ([12]; ovariectomised, lactating rats) was 6.2-19.7 μmole genistein per kg bodyweight per day. The “concentrations of increased adipocyte numbers” value (KS483 cells) was at least 10 µM.
